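Cultured in 96-well plates, cells were exposed to test compound for 48 hours across five concentrations. GI50 = concentration required for 50% inhibition of growth.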 Active and inactive are the calls of the source. No stated cut-off is given here; in the data, active = GI50 up to about 1.1 µM and inactive = higher.
Key:
Assay in all cases: NCI tumour cell line growth inhibition, 48 h
ACHN = tested on: ACHN
HT-29 = tested on: HT-29
MDA-MB-231 = tested on: MDA-MB-231
SF-268 = tested on: SF-268
TK-10 = tested on: TK-10
OVCAR-8 = tested on: OVCAR-8
HL-60 = tested on: HL-60
A549 = tested on: A549
KM12 = tested on: KM12
BT-549 = tested on: BT-549
SF-295 = tested on: SF-295
EKVX = tested on: EKVX
NCI/ADR-RES = tested on: NCI/ADR-RES
786-0 = tested on: 786-0
UACC-62 = tested on: UACC-62
Malme-3M = tested on: Malme-3M
NCI-H226 = tested on: NCI-H226
A498 = tested on: A498
MDA-N = tested on: MDA-N
LOX IMVI = tested on: LOX IMVI

SMILES	GI50 (ACHN)	GI50 (HT-29)	GI50 (MDA-MB-231)	GI50 (SF-268)	GI50 (TK-10)	GI50 (OVCAR-8)	GI50 (HL-60)	GI50 (A549)	GI50 (KM12)	GI50 (BT-549)	GI50 (SF-295)	GI50 (EKVX)	GI50 (NCI/ADR-RES)	GI50 (786-0)	GI50 (UACC-62)	GI50 (Malme-3M)	GI50 (NCI-H226)	GI50 (A498)	GI50 (MDA-N)	GI50 (LOX IMVI)
O=C(Nc1ccc(Br)c2ccccc12)c1ccc2ccccc2c1O	3.09 µM (inactive)	3.67 µM (inactive)	3.27 µM (inactive)	3.87 µM (inactive)	3.19 µM (inactive)	3.86 µM (inactive)	3.64 µM (inactive)	1.77 µM (inactive)	2.9 µM (inactive)	2.83 µM (inactive)	2.05 µM (inactive)	3.13 µM (inactive)	2.72 µM (inactive)	3.94 µM (inactive)	1.82 µM (inactive)	1.36 µM (inactive)	1.87 µM (inactive)	2.52 µM (inactive)	1.7 µM (inactive)	–
N#Cc1cnc(N)nc1NCC1(CO)CC(CCc2ccccc2)C1 (centres undefined)	> 33.5 µM (inactive)	> 100 µM (inactive)	56.2 µM (inactive)	> 55.6 µM (inactive)	> 61.5 µM (inactive)	47.3 µM (inactive)	–	14.3 µM (inactive)	> 85.5 µM (inactive)	> 100 µM (inactive)	18.5 µM (inactive)	35.2 µM (inactive)	9.95 µM (inactive)	> 85.5 µM (inactive)	> 100 µM (inactive)	> 100 µM (inactive)	> 100 µM (inactive)	29 µM (inactive)	29.9 µM (inactive)	5.26 µM (inactive)
Cc1c(-c2ccccc2)n(C)c2cn[nH]c(=O)c12	44.3 µM (inactive)	26.1 µM (inactive)	17.9 µM (inactive)	37.5 µM (inactive)	41.4 µM (inactive)	39.2 µM (inactive)	36.5 µM (inactive)	44.8 µM (inactive)	37.5 µM (inactive)	32.3 µM (inactive)	25.2 µM (inactive)	18.1 µM (inactive)	26.7 µM (inactive)	23.3 µM (inactive)	34.9 µM (inactive)	42.6 µM (inactive)	–	30.4 µM (inactive)	33.5 µM (inactive)	18.7 µM (inactive)
COC(=O)c1cc(-c2c[nH]cc2C(=O)OCc2ccccc2)cn1S(=O)(=O)c1ccc(C)cc1	> 100 µM (inactive)	> 100 µM (inactive)	> 100 µM (inactive)	> 100 µM (inactive)	> 100 µM (inactive)	> 100 µM (inactive)	–	> 100 µM (inactive)	> 100 µM (inactive)	71.4 µM (inactive)	> 100 µM (inactive)	8.89 µM (inactive)	66.7 µM (inactive)	> 100 µM (inactive)	> 100 µM (inactive)	> 100 µM (inactive)	–	> 100 µM (inactive)	> 100 µM (inactive)	22.4 µM (inactive)
CCOC(=O)c1c(N2CCOCC2)[nH]c(=O)c(C(c2ccco2)c2c(O)c(C(=O)OCC)c(N3CCOCC3)[nH]c2=O)c1O	> 100 µM (inactive)	> 100 µM (inactive)	> 100 µM (inactive)	> 100 µM (inactive)	> 100 µM (inactive)	> 100 µM (inactive)	–	> 100 µM (inactive)	> 100 µM (inactive)	> 100 µM (inactive)	> 100 µM (inactive)	> 100 µM (inactive)	> 100 µM (inactive)	> 100 µM (inactive)	> 100 µM (inactive)	> 100 µM (inactive)	> 100 µM (inactive)	> 100 µM (inactive)	> 100 µM (inactive)	> 100 µM (inactive)
CCN(CCCN(CC)C(=O)N[C@@H](Cc1ccccc1)C(=O)NC)C(=O)N[C@@H](Cc1ccccc1)C(=O)NC	> 100 µM (inactive)	> 100 µM (inactive)	> 100 µM (inactive)	> 100 µM (inactive)	> 100 µM (inactive)	> 100 µM (inactive)	–	> 100 µM (inactive)	> 100 µM (inactive)	> 100 µM (inactive)	> 100 µM (inactive)	> 100 µM (inactive)	> 100 µM (inactive)	> 100 µM (inactive)	> 100 µM (inactive)	> 100 µM (inactive)	> 100 µM (inactive)	> 100 µM (inactive)	> 100 µM (inactive)	> 100 µM (inactive)
O=C1c2ccccc2C(=O)c2c(NC(=O)C3CC3)ccc(NC(=O)C3CC3)c21	58.2 µM (inactive)	> 100 µM (inactive)	> 100 µM (inactive)	–	> 100 µM (inactive)	> 100 µM (inactive)	95.7 µM (inactive)	> 100 µM (inactive)	> 100 µM (inactive)	> 100 µM (inactive)	33.4 µM (inactive)	> 100 µM (inactive)	> 100 µM (inactive)	61.7 µM (inactive)	26.9 µM (inactive)	61.2 µM (inactive)	–	> 100 µM (inactive)	> 100 µM (inactive)	> 100 µM (inactive)
COC(=O)[C@]1(C)CCC[C@]2(C)[C@H]3CC[C@]4(C(C)C)OO[C@@H](O4)[C@]34O[C@@H]4C[C@H]21	0.56 µM (active)	1.82 µM (inactive)	4.11 µM (inactive)	2.24 µM (inactive)	4.88 µM (inactive)	3.61 µM (inactive)	1.68 µM (inactive)	1.81 µM (inactive)	2.86 µM (inactive)	4.81 µM (inactive)	3.63 µM (inactive)	1.87 µM (inactive)	3.57 µM (inactive)	1.6 µM (inactive)	5.3 µM (inactive)	6.68 µM (inactive)	4.49 µM (inactive)	–	2.22 µM (inactive)	0.35 µM (active)
Cc1cc(C)n(-c2nc3ccccc3c(=O)[nH]2)n1	2.49 µM (inactive)	2.74 µM (inactive)	11 µM (inactive)	4.1 µM (inactive)	> 50.8 µM (inactive)	0.863 µM (active)	1.32 µM (inactive)	2.95 µM (inactive)	5.94 µM (inactive)	18.8 µM (inactive)	2.1 µM (inactive)	5.42 µM (inactive)	1.53 µM (inactive)	2.24 µM (inactive)	2.78 µM (inactive)	–	–	23.2 µM (inactive)	32.6 µM (inactive)	1.41 µM (inactive)
O=C(/C=C\c1ccsc1)c1ccccc1	8.05 µM (inactive)	4.06 µM (inactive)	4.17 µM (inactive)	6.9 µM (inactive)	15 µM (inactive)	8.99 µM (inactive)	0.182 µM (active)	–	2.97 µM (inactive)	12.6 µM (inactive)	15.8 µM (inactive)	12.9 µM (inactive)	12.3 µM (inactive)	7.21 µM (inactive)	12.2 µM (inactive)	–	16.5 µM (inactive)	5.31 µM (inactive)	12.4 µM (inactive)	2.21 µM (inactive)
COc1ccc(/C=C2\CN(C)CC3=C2OC(N)=C(C#N)C3c2ccc(OC)cc2)cc1 (centres undefined)	29.6 µM (inactive)	> 56.8 µM (inactive)	42.4 µM (inactive)	48.6 µM (inactive)	> 84.5 µM (inactive)	19.9 µM (inactive)	–	23 µM (inactive)	> 56.5 µM (inactive)	> 100 µM (inactive)	57.5 µM (inactive)	43.4 µM (inactive)	51.9 µM (inactive)	30.5 µM (inactive)	> 100 µM (inactive)	14.3 µM (inactive)	> 100 µM (inactive)	35.4 µM (inactive)	21.8 µM (inactive)	42.7 µM (inactive)
C[C@@H]1OC(=O)C[C@H]2CC(=O)N(CCc3cn(S(=O)(=O)C(F)(F)F)c4ccccc34)C[C@@H]21	> 100 µM (inactive)	> 100 µM (inactive)	> 100 µM (inactive)	> 100 µM (inactive)	> 100 µM (inactive)	> 100 µM (inactive)	–	> 100 µM (inactive)	> 100 µM (inactive)	> 100 µM (inactive)	> 100 µM (inactive)	> 100 µM (inactive)	> 100 µM (inactive)	> 100 µM (inactive)	> 100 µM (inactive)	> 100 µM (inactive)	–	> 100 µM (inactive)	> 100 µM (inactive)	–
CCOC(=O)/C(C#N)=C/c1ccnc2ccccc12	> 100 µM (inactive)	> 100 µM (inactive)	83.9 µM (inactive)	> 100 µM (inactive)	> 100 µM (inactive)	10.4 µM (inactive)	–	> 100 µM (inactive)	32.5 µM (inactive)	50.5 µM (inactive)	93.1 µM (inactive)	> 100 µM (inactive)	13.5 µM (inactive)	61.9 µM (inactive)	> 100 µM (inactive)	37.1 µM (inactive)	> 100 µM (inactive)	> 100 µM (inactive)	> 100 µM (inactive)	15.6 µM (inactive)
O=C(O)c1ccccc1CC1Cc2ccccc2C1=O (centres undefined)	> 100 µM (inactive)	> 100 µM (inactive)	> 100 µM (inactive)	> 100 µM (inactive)	> 100 µM (inactive)	> 100 µM (inactive)	> 100 µM (inactive)	> 100 µM (inactive)	> 100 µM (inactive)	> 100 µM (inactive)	> 100 µM (inactive)	> 100 µM (inactive)	> 100 µM (inactive)	> 100 µM (inactive)	> 100 µM (inactive)	> 100 µM (inactive)	> 100 µM (inactive)	–	> 100 µM (inactive)	> 100 µM (inactive)
Cc1ccc(/N=N/C(=N/NC(=O)c2ccccc2)c2ccc(N(CCC#N)CCC#N)cc2C)cc1	> 100 µM (inactive)	19 µM (inactive)	31.4 µM (inactive)	41.9 µM (inactive)	> 100 µM (inactive)	39.4 µM (inactive)	12.2 µM (inactive)	34.3 µM (inactive)	29.3 µM (inactive)	48.3 µM (inactive)	21.7 µM (inactive)	63.4 µM (inactive)	> 100 µM (inactive)	33.3 µM (inactive)	31 µM (inactive)	43.5 µM (inactive)	44 µM (inactive)	19.8 µM (inactive)	3.97 µM (inactive)	–

— ChEMBL document CHEMBL1201862, “PubChem BioAssay data set” (2004)
